Measured values reported in US10294202B2, “Pyrrolidinones as herbicides” (FMC Corporation, priority 2013, dated 2019).

Columns and labels:
ryegrass, Italian = assay: Test A pre-/postemergence herbicide test; format: in vivo, Lolium multiflorum
Summary of the method: (§1)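 Seeds sown in loam soil/sand blend received a preemergence directed soil spray of test chemical in non-phytotoxic solvent with surfactant; postemergence plants (2–10 cm, one- to two-leaf stage) were sprayed with the same formulation. After about 10 days in greenhouse, injury was rated visually versus untreated controls, 0 (no effect) to 100 (complete control).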

barnyardgrass [1] = assay: Test B flooded paddy test; format: in vivo, Echinochloa crus-galli; conditions: 500 g ai/ha, Flood; scale of 0 to 100 where 0 is no effect and 100 is complete control
Summary of the method: (§2)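 Scoring: visual, compared with untreated controls, 0 = no effect through 100 = complete control, taken 13 to 15 days after treatment in the greenhouse. Compounds had been added to paddy water over soil flooded 3 cm deep at the plants' 2-leaf stage.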

blackgrass = assay: Test A postemergence herbicide test; format: in vivo, Alopecurus myosuroides
Summary of the method: (§3)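 Potted in loam soil/sand blend; postemergence application at 1–2 leaf stage (2–10 cm). Greenhouse ~10 d. Visual injury vs untreated, 0–100 scale; 100 = complete control.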

galium = assay: Test A postemergence herbicide test; format: in vivo, Galium aparine
Summary of the method: as §3

rice = assay: Test B flooded paddy test; format: in vivo, Oryza sativa; conditions: 500 g ai/ha, Flood; scale of 0 to 100 where 0 is no effect and 100 is complete control
Summary of the method: as §2

ducksalad = assay: Test B flooded paddy test; format: in vivo, Heteranthera limosa; conditions: 500 g ai/ha, Flood; scale of 0 to 100 where 0 is no effect and 100 is complete control
Summary of the method: as §2

giant foxtail = assay: Test A pre-/postemergence herbicide test; format: in vivo, Setaria faberii
Summary of the method: as §1

barnyardgrass [2] = assay: Test A pre-/postemergence herbicide test; format: in vivo, Echinochloa crus-galli
Summary of the method: as §1

kochia = assay: Test A pre-/postemergence herbicide test; format: in vivo, Kochia scoparia
Summary of the method: as §1

corn = assay: Test A pre-/postemergence herbicide test; format: in vivo, Zea mays; conditions: Postemergence
Summary of the method: as §1

wheat = assay: Test A pre-/postemergence herbicide test; format: in vivo, Triticum aestivum; conditions: Postemergence
Summary of the method: as §1

pigweed = assay: Test A pre-/postemergence herbicide test; format: in vivo, Amaranthus retroflexus
Summary of the method: as §1

ragweed = assay: Test A pre-/postemergence herbicide test; format: in vivo, Ambrosia elatior
Summary of the method: as §1

sedge, umbrella = assay: Test B flooded paddy test; format: in vivo, Cyperus difformis; conditions: 500 g ai/ha, Flood; scale of 0 to 100 where 0 is no effect and 100 is complete control
Summary of the method: as §2

[3] = Postemergence, 125 g ai/ha, visual rating on 0 to 100 scale (0 no effect, 100 complete control), approx. 10 days
[4] = Postemergence, 500 g ai/ha, 0 to 100 scale (0 no effect, 100 complete control)
[5] = Preemergence, 125 g ai/ha, 0 to 100 scale where 0 is no effect and 100 is complete control
[6] = Preemergence, 500 g ai/ha, visual rating on 0 to 100 scale (0 no effect, 100 complete control)
[7] = 125 g ai/ha, visual rating on 0 to 100 scale (0 no effect, 100 complete control), approx. 10 days
[8] = 500 g ai/ha, 0 to 100 scale (0 no effect, 100 complete control)

SMILES	Plant response rating, Ryegrass, Italian (ryegrass, Italian; [3])	Plant response rating, Ryegrass, Italian (ryegrass, Italian; [5])	Ryegrass, Italian plant response rating (ryegrass, Italian; [6])	Plant response rating, Barnyardgrass (barnyardgrass [1])	Plant response rating, Blackgrass (blackgrass; [7])	Plant response rating, Blackgrass (blackgrass; [8])	Plant response rating, Galium (galium; [7])	Plant response rating, Rice (rice)	Plant response rating, Ducksalad (ducksalad)	Plant response rating, Foxtail, Giant (giant foxtail; [3])	Plant response rating, Foxtail, Giant (giant foxtail; [4])	Plant response rating, Foxtail, Giant (giant foxtail; [5])	Foxtail, Giant plant response rating (giant foxtail; [6])	Plant response rating, Barnyardgrass (barnyardgrass [2]; [3])	Plant response rating, Barnyardgrass (barnyardgrass [2]; [4])	Plant response rating, Barnyardgrass (barnyardgrass [2]; [5])	Barnyardgrass plant response rating (barnyardgrass [2]; [6])	Plant response rating, Kochia (kochia; [3])	Plant response rating, Kochia (kochia; [5])	Kochia plant response rating (kochia; [6])	also measured
CCN1CC(c2ccc(C(F)(F)F)cc2)C(C(=O)Nc2cccc(F)c2F)C1=O (stereo not drawn) [Compound 336]	0	0	20	50	0	0	0	0	60	70	70	80	90	30	60	50	60	0	0	60	Plant response rating, Ryegrass, Italian (ryegrass, Italian; [4]): 0; Plant response rating, Galium (galium; [8]): 0; Plant response rating, Kochia (kochia; [4]): 0; Plant response rating, Corn (corn; [7]): 0; Plant response rating, Corn (corn; [8]): 0; Plant response rating, Wheat (wheat; [7]): 0; Plant response rating, Wheat (wheat; [8]): 0; Plant response rating, Pigweed (pigweed; [3]): 0; Plant response rating, Pigweed (pigweed; [4]): 0; Plant response rating, Pigweed (pigweed; [5]): 0; Pigweed plant response rating (pigweed; [6]): 20; Plant response rating, Ragweed (ragweed; [3]): 0; Plant response rating, Ragweed (ragweed; [4]): 0; Plant response rating, Ragweed (ragweed; [5]): 0; Ragweed plant response rating (ragweed; [6]): 0; Plant response rating, Sedge, Umbrella (sedge, umbrella): 0
O=C1NCC(c2cccc(-n3cccn3)c2)C1C(=O)Nc1ccccc1C(F)(F)F (stereo not drawn) [Compound 338]	0	0	0	0	0	0	0	0	0	20	60	30	80	0	30	0	20	0	0	20	Plant response rating, Corn (corn; [7]): 0; Plant response rating, Corn (corn; [8]): 0; Plant response rating, Wheat (wheat; [7]): 0; Plant response rating, Pigweed (pigweed; [3]): 0; Plant response rating, Pigweed (pigweed; [5]): 0; Pigweed plant response rating (pigweed; [6]): 0; Plant response rating, Ragweed (ragweed; [3]): 0; Plant response rating, Ragweed (ragweed; [5]): 0; Ragweed plant response rating (ragweed; [6]): 0; Plant response rating, Sedge, Umbrella (sedge, umbrella): 0
O=C1NCC(c2ccc(Br)c(Br)c2)C1C(=O)Nc1ccccc1F (stereo not drawn) [Compound 339]	0	0	20	40	0	0	0	0	65	60	60	70	80	40	60	60	80	0	0	0	Plant response rating, Corn (corn; [7]): 0; Plant response rating, Corn (corn; [8]): 0; Plant response rating, Wheat (wheat; [7]): 0; Plant response rating, Pigweed (pigweed; [3]): 0; Plant response rating, Pigweed (pigweed; [5]): 0; Pigweed plant response rating (pigweed; [6]): 0; Plant response rating, Ragweed (ragweed; [3]): 0; Plant response rating, Ragweed (ragweed; [5]): 0; Ragweed plant response rating (ragweed; [6]): 0; Plant response rating, Sedge, Umbrella (sedge, umbrella): 0
